We go through two compounds from publication PMC8557901 (Microbiology Spectrum, 2021).

A word on the EC50: it is the concentration giving half of the maximal effect.

The test system of test [1] is P. falciparum F32-ART5 quiescent parasites. Kind of test: Quiescent-stage survival assay (QSA). The class given is cell-based, Plasmodium falciparum. The note with it: artemisinin 3 μM 6 h then artemisinin + CQ 200 nM versus artemisinin alone. As for the experimental part: (§1) The Plasmodium falciparum artemisinin-resistant strain F32-ART5 and its twin artemisinin-sensitive line F32-TEM ([30], [31]) were cultivated at 37°C with 5% CO2 in human red blood cells (EFS [French Blood Bank]) diluted to 2% hematocrit in RPMI 1640 medium supplemented with 5% human serum (EFS) as previously reported ([47]).
Chemosensitivity evaluation of artemisinin-resistant parasites at the quiescent stage was performed on the F32-ART5 strain using the quiescent-stage survival assay (QSA) ([33]). D-Sorbitol-synchronized ring-stage parasites at 3% parasitemia (2% hematocrit) were first exposed to 3 μM artemisinin for 6 h to induce quiescence of artemisinin-resistant parasites. Then, quiescent parasites were exposed or not (as a control condition) to 2.5 μM M1 for 24 h. After drug exposure, parasite cultures were washed with RPMI 1640 medium and replaced in normal drug-free culture conditions. The time to parasite recrudescence was determined as the time required to reach initial parasitemia. […] In each experiment, results obtained with the condition “artemisinin 3 μM 6 h/artemisinin 3 μM 24 h” were compared to those obtained with the condition “artemisinin 3 μM 6 h/(artemisinin 3 μM + M1 2.5 μM) 24 h” in order to determine the delay in recrudescence time. […] Each experiment was carried out three times independently, and data statistically analyzed. […]

Test [2] has as its system P. falciparum strain K1 in RBC. Kind of test: In vitro chemosensitivity assay, blood stage P. falciparum K1 (SYBR green I). The class given is cell-based. The note with it: Plasmodium falciparum, K1, 72 h, read-out: EC50 (μM) for P. falciparum strain K1 in RBC. As for the experimental part: Maintenance in continuous culture was done as described previously by Trager and Jensen ([46]). Cultures were maintained in fresh A+ human erythrocytes (EFS [French Blood Bank]) at 2.5% hematocrit in complete medium (RPMI 1640 with 25 mM HEPES, 25 mM NaHCO3, 10% A+ human serum) at 37°C under a reduced-O2 atmosphere (gas mixture of 10% O2, 5% CO2, and 85% N2). Parasitemia was maintained daily between 1% and 3%. The P. falciparum drug susceptibility test was carried out by comparing quantities of DNA in treated and control cultures of parasites in human erythrocytes according to a SYBR green I fluorescence-based method ([50]) using a 96-well fluorescence plate reader. Compounds, previously dissolved in DMSO (final concentration, less than 0.5% vol/vol), were incubated in a total assay volume of 200 μl of synchronized culture suspension (2% hematocrit and 0.4% parasitemia) for 72 h in a humidified atmosphere (85% N2, 10% O2, and 5% CO2) at 37°C in 96-well flat-bottom plates. Duplicate assays were performed for each sample. After incubation, plates were frozen at −20°C for 24 h. Then, the frozen plates were thawed for 1 h at 37°C. Fifteen microliters of each sample was transferred to 96-well flat-bottom black plates (Greiner Bio-one) already containing 15 μl of the SYBR green I lysis buffer (2× SYBR green I, 20 mM Tris base, pH 7.5, 20 mM EDTA, 0.008% [wt/vol] saponin, 0.08% [wt/vol] Triton X-100). […] Plates were incubated for 15 min at 37°C and then read on a Tecan Infinite F-200 spectrophotometer with excitation and emission wavelengths at 485 and 535 nm, respectively. […] EC50K1 values represent the mean values calculated from three independent experiments.

For another test, the system named is Plasmodium berghei. Also on record: method as in PMID 25791675. The note with it: 2.5 mg/kg twice a day for 3 days; untreated group 9%; cited from earlier work.
In test [3] the test system is P. falciparum F32-ART5 (artemisinin-resistant). As to the kind of experiment: Standard in vitro chemosensitivity assay (hypoxanthine uptake), F32-ART5. The class given is cell-based. The note with it: Plasmodium falciparum, F32, 48 h, read-out: Mean EC50 ± SD. As for the experimental part:
as §1
(§2) In vitro susceptibility of P. falciparum parasites was determined by using the standard hypoxanthine uptake inhibition assay as described previously ([51]) with some modifications ([52]). After D-sorbitol treatment, parasites synchronized at the ring stage were exposed for 48 h, with [^3H]hypoxanthine (Perkin Elmer, France), to a range of concentrations of the different tested compounds. […] Each result represents 3 independent experiments.

For test [4], the system named is P. falciparum F32-TEM (artemisinin-sensitive). As to the kind of experiment: Standard in vitro chemosensitivity assay (hypoxanthine uptake), F32-TEM. The class given is cell-based. The note with it: Plasmodium falciparum, F32, 48 h, read-out: Mean EC50 ± SD. As for the experimental part:
as §1, §2

Test [5] relates to P. falciparum F32-ART5 and F32-TEM. As to the kind of experiment: Recrudescence assay F32-ART5 versus F32-TEM. The class given is cell-based, Plasmodium falciparum. The note with it: 48 h drug exposure; M1 2.5 and 10 μM; artemisinin 18 μM. The method, then:
as §1
A recrudescence assay was performed to evaluate the ability of the F32-ART5 parasite line to survive drug exposure in comparison to that of the F32-TEM parasite line ([30], [31]) in order to evaluate the risk of cross-resistance between artemisinin and M1. D-Sorbitol-synchronized ring-stage parasites at 3% parasitemia (2% hematocrit) were exposed to the drug for 48 h. After drug exposure, parasite cultures were washed with RPMI 1640 medium and replaced in normal drug-free culture conditions. The time to parasite recrudescence was determined as the time required to reach initial parasitemia. […] Each experiment, performed in parallel for F32-ART5 and F32-TEM cultivated under the same conditions to generate paired results, was carried out at least three times independently and data statistically analyzed.
A statistical analysis (log-rank test) was carried out on data from the recrudescence assay and the QSA using a Kaplan-Meier survival analysis considering censored data. The final event was defined as the time necessary for cultures to reach initial parasitemia. […]

Take `CCN(CC)CCCC(C)Nc1ccnc2cc(Cl)ccc12` (stereo not drawn) [Chloroquine, reference compound]: the “difference in recrudescence times versus artemisinin alone” value in test [1] is “no difference in the recrudescence times”. For the same compound, the EC50 in test [2] stood at 0.8 µM. Besides, in the test on Plasmodium berghei, the “parasitemia at day 4” value is recorded as 1.5%.

`C[C@@H]1CC[C@H]2[C@@H](C)C(=O)O[C@@H]3O[C@@]4(C)CC[C@@H]1[C@]32OO4` [Artemisinin, reference compound]: the EC50 in test [3] was 0.011 ± 0.0005 µM; in test [4] it was 0.0111 ± 0.0016 µM. Moreover, the “recrudescence of F32-ART5 versus F32-TEM (cross-resistance with artemisinin)” value in test [5] was “faster recrudescence for F32-ART5 than for F32-TEM”.
